# Laboratory results from patent US20260008787A1, “FUSED RING KRAS INHIBITORS FOR TREATING DISEASE” (BLOSSOMHILL THERAPEUTICS, INC., priority 2022, published 2026).
# Tests used:
# GP2D (KRAS G12D) [1] = test: Cell proliferation assay (CellTiter-Glo, 72 hours), GP2D; type: cell-based; conditions: GP2d, 72 h, 384-well, CellTiter-Glo 2.0
# Procedure: (§1) Two thousand KRAS mutant cells per well were seeded in 384-well white plate and then treated with indicated compounds for 72 hours at 37° C. and 5% CO2. Cell proliferation was measured using CellTiter-Glo 2.0 luciferase-based ATP detection assay (Promega, Madison, WI) following the manufacturer's protocol. IC50 values were determined using Prism software (GraphPad Software, San Diego, CA).
# SW620 (KRAS G12V) [2] = test: Cell proliferation assay (CellTiter-Glo, 72 hours), SW620; type: cell-based; conditions: Homo sapiens, SW-620, 72 h, 384-well, CellTiter-Glo 2.0
# Procedure: as §1
# AGS (G12D) = test: Cell proliferation assay (CellTiter-Glo, 72 hours), AGS; type: cell-based; conditions: 72 h, 384-well, CellTiter-Glo 2.0
# Procedure: as §1
# GP2D (KRAS G12D) [3] = test: Cell proliferation assay Method B (5 days), GP2D; type: cell-based; conditions: 120 h, 96-well, read-out: Anti-Cell Proliferation IC50 (nM), GP2D
# Procedure: as §1, with “Method B: Two” for “Two”, “96-well black” for “384-well white”, “5 days” for “72 hours”
# AGS (KRAS G12D) = test: Cell proliferation assay Method B (5 days), AGS; type: cell-based; conditions: 120 h, 96-well, read-out: Anti-Cell Proliferation IC50 (nM), AGS
# Procedure: as §1, with “Method B: Two” for “Two”, “96-well black” for “384-well white”, “5 days” for “72 hours”
# HPAC (KRAS G12D) = test: Cell proliferation assay Method B (5 days), HPAC; type: cell-based; conditions: Homo sapiens, 120 h, 96-well, read-out: Anti-Cell Proliferation IC50 (nM), HPAC
# Procedure: as §1, with “Method B: Two” for “Two”, “96-well black” for “384-well white”, “5 days” for “72 hours”
# AsPC1 (KRAS G12D) = test: Cell proliferation assay Method B (5 days), AsPC1; type: cell-based; conditions: Homo sapiens, ASPC1, 120 h, 96-well, read-out: Anti-Cell Proliferation IC50 (nM), AsPC1
# Procedure: as §1, with “Method B: Two” for “Two”, “96-well black” for “384-well white”, “5 days” for “72 hours”
# PANC0403 (KRAS G12D) = test: Cell proliferation assay Method B (5 days), PANC0403; type: cell-based; conditions: Homo sapiens, Panc 04.03, 120 h, 96-well, read-out: Anti-Cell Proliferation IC50 (nM), PANC0403
# Procedure: as §1, with “Method B: Two” for “Two”, “96-well black” for “384-well white”, “5 days” for “72 hours”
# PANC0504 (KRAS G12D) = test: Cell proliferation assay Method B (5 days), PANC0504; type: cell-based; conditions: Panc 05.04, 120 h, 96-well, read-out: Anti-Cell Proliferation IC50 (nM), PANC0504
# Procedure: as §1, with “Method B: Two” for “Two”, “96-well black” for “384-well white”, “5 days” for “72 hours”
# H23 (KRAS G12C) = test: Cell proliferation assay Method B (5 days), H23; type: cell-based; conditions: 120 h, 96-well, read-out: Anti-Cell Proliferation IC50 (nM), H23
# Procedure: as §1, with “Method B: Two” for “Two”, “96-well black” for “384-well white”, “5 days” for “72 hours”
# H358 (KRAS G12C) = test: Cell proliferation assay Method B (5 days), H358; type: cell-based; conditions: Homo sapiens, NCI-H358, 120 h, 96-well, read-out: Anti-Cell Proliferation IC50 (nM), H358
# Procedure: as §1, with “Method B: Two” for “Two”, “96-well black” for “384-well white”, “5 days” for “72 hours”
# MiaPaCa2 (KRAS G12C) = test: Cell proliferation assay Method B (5 days), MiaPaCa2; type: cell-based; conditions: Homo sapiens, MIA PaCa-2, 120 h, 96-well, read-out: Anti-Cell Proliferation IC50 (nM), MiaPaCa2
# Procedure: as §1, with “Method B: Two” for “Two”, “96-well black” for “384-well white”, “5 days” for “72 hours”
# SW620 (KRAS G12V) [4] = test: Cell proliferation assay Method B (5 days), SW620; type: cell-based; conditions: Homo sapiens, SW-620, 120 h, 96-well, read-out: Anti-Cell Proliferation IC50 (nM), SW620
# Procedure: as §1, with “Method B: Two” for “Two”, “96-well black” for “384-well white”, “5 days” for “72 hours”
# CAPAN-2 (KRAS G12V) = test: Cell proliferation assay Method B (5 days), CAPAN-2; type: cell-based; conditions: Homo sapiens, Capan-2, 120 h, 96-well, read-out: Anti-Cell Proliferation IC50 (nM), CAPAN-2
# Procedure: as §1, with “Method B: Two” for “Two”, “96-well black” for “384-well white”, “5 days” for “72 hours”
# H2291 (KRAS G12F) = test: Cell proliferation assay Method B (5 days), H2291; type: cell-based; conditions: Homo sapiens, NCI-H2291, 120 h, 96-well, read-out: Anti-Cell Proliferation IC50 (nM), H2291
# Procedure: as §1, with “Method B: Two” for “Two”, “96-well black” for “384-well white”, “5 days” for “72 hours”
# HCT116 (KRAS G13D) = test: Cell proliferation assay Method B (5 days), HCT116; type: cell-based; conditions: Homo sapiens, HCT-116, 120 h, 96-well, read-out: Anti-Cell Proliferation IC50 (nM), HCT116
# Procedure: as §1, with “Method B: Two” for “Two”, “96-well black” for “384-well white”, “5 days” for “72 hours”
# [5] = system: Phospho-ERK in AGS (KRAS G12D) cells; test: Kinase phosphorylation assay (Phospho-ERK), AGS; type: cell-based; conditions: 3 hours treatment, normalized to β-actin, read-out: pERK ½ IC50 (nM), AGS
# Procedure: (§2) KRAS mutant cells were plated in clear bottom 96 well plates at a density of 50,000-120,000 cells per well. Cells were allowed to attach overnight and then treated with compounds for 3 hours. After treatment, cells were fixed with 10% buffered formalin for 20 minutes at room temperature, washed with PBS, and then permeabilized with ice cold 100% methanol for 10 minutes to overnight at −20° C. Odyssey Blocking Buffer (LiCOR Biosciences: 927-60001) was added to each well for 1 hour at room temperature prior to incubation with primary antibodies overnight at 4° C. The primary antibodies used were as follows: Phospho-ERK (Cell Signaling: CS-9101) diluted to 1:250 and […] (Cell Signaling: CS-3700) diluted to 1:2000 in Odyssey Blocking Buffer+0.05% Tween20. Plates were washed 3× with Wash Buffer (PBS+0.1% Tween20) and incubated with secondary antibodies for 2 hours at room temperature. The following secondary antibodies were used: goat anti-rabbit-800 (LI-COR: 926-32211) and goat anti-mouse-680 (LICOR: 926-68070) both diluted to 1:2000 in Odyssey Blocking Buffer+0.05% Tween20. […] Phospho-ERK signal was normalized to β-actin signal for each well and the percent of DMSO control values were calculated. IC50 values were calculated using the sigmoidal dose-response (variable slope) equation in GraphPad Prism 4.
# [6] = system: Phospho-ERK in SW620 (KRAS G12V) cells; test: Kinase phosphorylation assay (Phospho-ERK), SW620; type: cell-based; conditions: Homo sapiens, SW-620, 3 hours treatment, normalized to β-actin, read-out: pERK ½ IC50 (nM), SW620
# Procedure: as §2
# [7] = system: Phospho-ERK in H2291 (KRAS G12F) cells; test: Kinase phosphorylation assay (Phospho-ERK), H2291; type: cell-based; conditions: Homo sapiens, NCI-H2291, 3 hours treatment, normalized to β-actin, read-out: pERK ½ IC50 (nM), H2291
# Procedure: as §2
# [8] = system: Phospho-ERK in HCT116 (KRAS G13D) cells; test: Kinase phosphorylation assay (Phospho-ERK), HCT116; type: cell-based; conditions: Homo sapiens, HCT-116, 3 hours treatment, normalized to β-actin, read-out: pERK ½ IC50 (nM), HCT116
# Procedure: as §2
# KRAS G12D = KRAS G12D (Homo sapiens, UniProt P01116, G12D); test: biochemical
# KRAS G12V = KRAS G12V (Homo sapiens, UniProt P01116, G12V); test: biochemical
# Chain of KRAS G12V (P01116 1-188 isoform P01116-2 G12V): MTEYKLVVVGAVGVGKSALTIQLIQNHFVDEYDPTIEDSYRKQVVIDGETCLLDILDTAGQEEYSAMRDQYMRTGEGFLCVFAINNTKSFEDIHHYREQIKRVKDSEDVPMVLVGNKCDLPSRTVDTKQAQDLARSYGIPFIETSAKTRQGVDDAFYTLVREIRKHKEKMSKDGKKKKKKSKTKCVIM
# Chain of KRAS G12D (P01116 1-188 isoform P01116-2 G12D): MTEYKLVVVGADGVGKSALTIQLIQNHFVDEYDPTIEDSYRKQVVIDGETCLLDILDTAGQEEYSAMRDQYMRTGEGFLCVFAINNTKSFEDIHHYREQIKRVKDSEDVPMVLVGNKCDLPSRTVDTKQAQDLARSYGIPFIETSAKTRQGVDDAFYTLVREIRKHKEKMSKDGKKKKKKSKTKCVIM
SMILES,IC50 (GP2D (KRAS G12D) [1]),IC50 (SW620 (KRAS G12V) [2]),IC50 (AGS (G12D)),IC50 (GP2D (KRAS G12D) [3]),IC50 (AGS (KRAS G12D)),IC50 (HPAC (KRAS G12D)),IC50 (AsPC1 (KRAS G12D)),IC50 (PANC0403 (KRAS G12D)),IC50 (PANC0504 (KRAS G12D)),IC50 (H23 (KRAS G12C)),IC50 (H358 (KRAS G12C)),IC50 (MiaPaCa2 (KRAS G12C)),IC50 (SW620 (KRAS G12V) [4]),IC50 (CAPAN-2 (KRAS G12V)),IC50 (H2291 (KRAS G12F)),IC50 (HCT116 (KRAS G13D)),IC50 [5],IC50 [6],IC50 (KRAS G12D),IC50 (KRAS G12V),other results
"CCc1c(F)ccc2cc(O)cc(-c3nc4c5c(nc(OC[C@@]67CCCN6C[C@H](F)C7)nc5c3F)N3CCCC[C@H]3CO4)c12 [compound 2, 5-ethyl-6-fluoro-4-[(8aS)-4-fluoro-2-{[(2R,7aS)-2-fluorotetrahydro-1H-pyrrolizin-7a(5H)-yl]methoxy}-8,8a,9,10,11,12-hexahydro-7-oxa-1,3,6,12a-tetraazabenzo[4,5]cyclohepta[1,2,3-de]naphthalen-5-yl]naphthalen-2-ol]",17.2 nM,41.4 nM,52.3 nM,11.3 nM,86.2 nM,94.5 nM,213 nM,76.7 nM,44 nM,145 nM,222 nM,68.1 nM,43.8 nM,60.2 nM,37.2 nM,> 3000 nM,19.6 nM,22.1 nM,3.96 nM,1.83 nM,IC50 [7]: 65 nM; IC50 [8]: 93.4 nM
"C#Cc1c(F)ccc2cc(O)cc(-c3nc4c5c(nc(OC[C@@]67CCCN6C[C@H](F)C7)nc5c3F)N3CCCC[C@H]3CO4)c12 [compound 1, 5-ethynyl-6-fluoro-4-((S)-4-fluoro-2-(((2R,7aS)-2-fluorotetrahydro-1H-pyrrolizin-7a(5H)-yl)methoxy)-8,8a,9,10,11,12-hexahydro-7-oxa-1,3,6,12a-tetraazabenzo[4,5]cyclohepta[1,2,3-de]naphthalen-5-yl)naphthalen-2-ol]",2.51 nM,10.4 nM,6.9 nM,2.8 nM,14.8 nM,18.9 nM,108 nM,27.7 nM,9 nM,47.4 nM,49.2 nM,15.2 nM,9.6 nM,35.2 nM,5.7 nM,474 nM,3.46 nM,3.24 nM,,,IC50 [7]: 4.29 nM; IC50 [8]: 14.1 nM
"C#Cc1c(F)ccc2cc(O)cc(-c3nc4c5c(nc(OC[C@@]67CCCN6C[C@H](F)C7)nc5c3F)N[C@@H](C)CO4)c12 [Example 46, 5-ethynyl-6-fluoro-4-[(9S)-4-fluoro-2-{[(2R,7aS)-2-fluorotetrahydro-1H-pyrrolizin-7a(5H)-yl]methoxy}-9-methyl-9,10-dihydro-8H-7-oxa-1,3,6,10-tetraazacyclohepta[1,2,3-de]naphthalen-5-yl]naphthalen-2-ol]",74.8 nM,414 nM,193 nM,,,,,,,,,,,,,,,,2.1 nM,1.71 nM,
"C#Cc1c(F)ccc2cc(F)cc(-c3nc4c5c(nc(OC[C@@]67CCCN6C[C@H](F)C7)nc5c3F)N3CCCC[C@H]3CO4)c12 [Example 89, (7S)-12-(8-ethynyl-3,7-difluoro-1-naphthyl)-13-fluoro-16-[[(2R,8S)-2-fluoro-1,2,3,5,6,7-hexahydropyrrolizin-8-yl]methoxy]-9-oxa-2,11,15,17-tetrazatetracyclo[8.7.1.02,7.014,18]octadeca-1 (17),10 (18),11,13,15-pentaene]",1170 nM,> 3000 nM,> 3000 nM,,,,,,,,,,,,,,,,3.93 nM,4.2 nM,
"C#Cc1c(F)ccc2cc(O)cc(-c3nc4c5c(nc(OC[C@@]67CCCN6C[C@H](F)C7)nc5c3F)N3CCCCC3CC4)c12 (stereo partly drawn) [Example 121, 5-ethynyl-6-fluoro-4-(4-fluoro-2-{[(2R,7aS)-2-fluorotetrahydro-1H-pyrrolizin-7a(5H)-yl]methoxy}-8,8a,9,10,11,12-hexahydro-7H-1,3,6,12a-tetraazabenzo[4,5]cyclohepta[1,2,3-de]naphthalen-5-yl)naphthalen-2-ol]",3.67 nM,16.6 nM,21.5 nM,,,,,,,,,,,,,,,,1.74 nM,1.99 nM,
